Test results: patent US10435405B2, “Pyrazolopyridine compounds and uses thereof” (Incyte Corporation, priority 2016, dated 2019)

Target: HPK1 (Homo sapiens (Human), UniProt Q92918)
Experiment: HPK1 Kinase Binding Assay
Procedure, shortened: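 This is a LanthaScreen tracer-binding format: a tracer 222/Eu-anti-GST antibody mix (18 nM and 4 nM solution) is added to active HPK1 (4 nM solution) with 3-fold, 11-point compound dilutions. Incubation is 1 h at 25 °C in HEPES pH 7.5 buffer before reading, and Ki is determined.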

Sequence of HPK1 (Q92918 1-346): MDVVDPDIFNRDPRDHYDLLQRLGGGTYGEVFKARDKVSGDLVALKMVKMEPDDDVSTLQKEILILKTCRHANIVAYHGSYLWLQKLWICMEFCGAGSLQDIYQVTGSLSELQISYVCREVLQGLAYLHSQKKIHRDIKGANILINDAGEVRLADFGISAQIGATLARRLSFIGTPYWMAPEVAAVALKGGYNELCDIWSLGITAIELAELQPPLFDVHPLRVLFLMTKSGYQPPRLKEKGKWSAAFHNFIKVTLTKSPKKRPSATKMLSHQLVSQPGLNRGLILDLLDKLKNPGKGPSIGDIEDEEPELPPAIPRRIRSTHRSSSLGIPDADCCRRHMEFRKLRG

Compound | Ki [nM]
Cc1cc(NC(=O)CN2C[C@H]3CC[C@@H]2C3)ccc1-c1cc2c(-c3cnn(C)c3)n[nH]c2cn1 [Example 79, 2-((1R,4S)-2-Azabicyclo[2.2.1]heptan-2-yl)-N-(3-methyl-4-(3-(1-methyl-1H-pyrazol-4-yl)-1H-pyrazolo[3,4-c]pyridin-5-yl)phenyl)acetamide] | ≤ 100
Cc1cc(NC(=O)CN2C3CCC2CC3)cc(F)c1-c1cc2c(-c3cnn(C)c3)n[nH]c2cn1 [Example 82, 2-(7-Azabicyclo[2.2.1]heptan-7-yl)-N-(3-fluoro-5-methyl-4-(3-(1-methyl-1H-pyrazol-4-yl)-1H-pyrazolo[3,4-c]pyridin-5-yl)phenyl)acetamide] | ≤ 100
CNCc1cccc(-c2cc3c(-c4cnn(C)c4)n[nH]c3cn2)c1C(F)(F)F [Example 88, N-Methyl-1-(3-(3-(1-methyl-1H-pyrazol-4-yl)-1H-pyrazolo[3,4-c]pyridin-5-yl)-2-(trifluoromethyl)phenyl)methanamine] | ≤ 100
Cn1cc(-c2n[nH]c3cnc(-c4cccc(CN5CCC5)c4C(F)(F)F)cc23)cn1 [Example 89, 5-(3-(Azetidin-1-ylmethyl)-2-(trifluoromethyl)phenyl)-3-(1-methyl-1H-pyrazol-4-yl)-1H-pyrazolo[3,4-c]pyridine] | ≤ 100
Cn1cc(-c2n[nH]c3cnc(-c4cccc(CNC5CCOCC5)c4C(F)(F)F)cc23)cn1 [Example 90, N-(3-(3-(1-Methyl-1H-pyrazol-4-yl)-1H-pyrazolo[3,4-c]pyridin-5-yl)-2-(trifluoromethyl)benzyl)tetrahydro-2H-pyran-4-amine] | ≤ 100
CNCCc1cc(F)c(-c2cc3c(-c4cnn(C)c4)n[nH]c3cn2)c(F)c1 [Example 96, 2-(3,5-Difluoro-4-(3-(1-methyl-1H-pyrazol-4-yl)-1H-pyrazolo[3,4-c]pyridin-5-yl)phenyl)-N-methylethanamine] | ≤ 100
CNCCc1ccc(F)c(-c2cc3c(-c4cnn(C)c4)n[nH]c3cn2)c1F [Example 97, 2-(2,4-Difluoro-3-(3-(1-methyl-1H-pyrazol-4-yl)-1H-pyrazolo[3,4-c]pyridin-5-yl)phenyl)-N-methylethanamine] | ≤ 100
Cn1cc(-c2n[nH]c3cnc(-c4c(F)ccc(CCNC5CCOCC5)c4F)cc23)cn1 [Example 98, N-(2,4-Difluoro-3-(3-(1-methyl-1H-pyrazol-4-yl)-1H-pyrazolo[3,4-c]pyridin-5-yl)phenethyl)tetrahydro-2H-pyran-4-amine] | ≤ 100
CC(C)N1CC(NCCc2cc(F)c(-c3cc4c(-c5cnn(C)c5)n[nH]c4cn3)c(F)c2)C1 [Example 99, N-(3,5-Difluoro-4-(3-(1-methyl-1H-pyrazol-4-yl)-1H-pyrazolo[3,4-c]pyridin-5-yl)phenethyl)-1-isopropylazetidin-3-amine] | ≤ 100
CNC(=O)c1ccc(-c2n[nH]c3cnc(-c4c(F)cccc4OC)cc23)cc1F [Example 100, 2-Fluoro-4-(5-(2-fluoro-6-methoxyphenyl)-1H-pyrazolo[3,4-c]pyridin-3-yl)-N-methylbenzamide] | ≤ 100
CNC(=O)c1ccc(-c2n[nH]c3cnc(-c4c(F)cccc4OC)cc23)cn1 [Example 101, 5-(5-(2-Fluoro-6-methoxyphenyl)-1H-pyrazolo[3,4-c]pyridin-3-yl)-N-methylpicolinamide] | ≤ 100
Cn1cc(-c2n[nH]c3cnc(-c4c(F)cc(OCC5CCN5)cc4F)cc23)cn1 (stereo not shown) [Example 106, 5-(4-(Azetidin-2-ylmethoxy)-2,6-difluorophenyl)-3-(1-methyl-1H-pyrazol-4-yl)-1H-pyrazolo[3,4-c]pyridine] | ≤ 100
Cn1cc(-c2n[nH]c3cnc(-c4c(F)cc(OCc5ccncc5)cc4F)cc23)cn1 [Example 108, 5-(2,6-Difluoro-4-(pyridin-4-ylmethoxy)phenyl)-3-(1-methyl-1H-pyrazol-4-yl)-1H-pyrazolo[3,4-c]pyridine] | ≤ 100
CN(C)C(=O)Oc1cc(F)c(-c2cc3c(-c4cnn(C)c4)n[nH]c3cn2)c(F)c1 [Example 109, 3,5-Difluoro-4-(3-(1-methyl-1H-pyrazol-4-yl)-1H-pyrazolo[3,4-c]pyridin-5-yl)phenyl dimethylcarbamate] | ≤ 100
Cn1cc(-c2n[nH]c3cnc(-c4c(F)cc(OC(=O)N5CCOCC5)cc4F)cc23)cn1 [Example 110, 3,5-Difluoro-4-(3-(1-methyl-1H-pyrazol-4-yl)-1H-pyrazolo[3,4-c]pyridin-5-yl)phenyl morpholine-4-carboxylate] | ≤ 100
CNCc1ccc(-c2cc3c(-c4cnn(C)c4)n[nH]c3cn2)c(C)c1 [Example 111, N-Methyl-1-(3-methyl-4-(3-(1-methyl-1H-pyrazol-4-yl)-1H-pyrazolo[3,4-c]pyridin-5-yl)phenyl)methanamine] | ≤ 100

Other lines, results leading:

Ki [nM] | Compound
≤ 100 | Cc1cc(NC(=O)CN2CCCC2)cc(F)c1-c1cc2c(-c3cnn(C)c3)n[nH]c2cn1 [Example 80, N-(3-Fluoro-5-methyl-4-(3-(1-methyl-1H-pyrazol-4-yl)-1H-pyrazolo[3,4-c]pyridin-5-yl)phenyl)-2-(pyrrolidin-1-yl)acetamide]
≤ 100 | Cc1cc(NC(=O)CN(C)C)cc(F)c1-c1cc2c(-c3cnn(C)c3)n[nH]c2cn1 [Example 81, 2-(Dimethylamino)-N-(3-fluoro-5-methyl-4-(3-(1-methyl-1H-pyrazol-4-yl)-1H-pyrazolo[3,4-c]pyridin-5-yl)phenyl)acetamide]
≤ 100 | Cc1cc(NC(=O)CN2C[C@H]3CC[C@@H]2C3)cc(F)c1-c1cc2c(-c3cnn(C)c3)n[nH]c2cn1 [Example 83, 2-((1R,4S)-2-Azabicyclo[2.2.1]heptan-2-yl)-N-(3-fluoro-5-methyl-4-(3-(1-methyl-1H-pyrazol-4-yl)-1H-pyrazolo[3,4-c]pyridin-5-yl)phenyl)acetamide]
≤ 100 | Cc1cc(NC(=O)CCN(C)C)cc(F)c1-c1cc2c(-c3cnn(C)c3)n[nH]c2cn1 [Example 84, 3-(Dimethylamino)-N-(3-fluoro-5-methyl-4-(3-(1-methyl-1H-pyrazol-4-yl)-1H-pyrazolo[3,4-c]pyridin-5-yl)phenyl)propanamide]
≤ 100 | Cc1cc(NC(=O)CC#N)cc(F)c1-c1cc2c(-c3cnn(C)c3)n[nH]c2cn1 [Example 85, 2-Cyano-N-(3-fluoro-5-methyl-4-(3-(1-methyl-1H-pyrazol-4-yl)-1H-pyrazolo[3,4-c]pyridin-5-yl)phenyl)acetamide]
≤ 100 | CNCc1cccc(-c2cc3c(-c4cnn(C)c4)n[nH]c3cn2)c1C [Example 86, N-Methyl-1-(2-methyl-3-(3-(1-methyl-1H-pyrazol-4-yl)-1H-pyrazolo[3,4-c]pyridin-5-yl)phenyl)methanamine]
≤ 100 | CNCc1ccc(C)c(-c2cc3c(-c4cnn(C)c4)n[nH]c3cn2)c1 [Example 87, N-Methyl-1-(4-methyl-3-(3-(1-methyl-1H-pyrazol-4-yl)-1H-pyrazolo[3,4-c]pyridin-5-yl)phenyl)methanamine]
≤ 100 | CC(C)NCc1cccc(-c2cc3c(-c4cnn(C)c4)n[nH]c3cn2)c1C(F)(F)F [Example 91, N-(3-(3-(1-Methyl-1H-pyrazol-4-yl)-1H-pyrazolo[3,4-c]pyridin-5-yl)-2-(trifluoromethyl)benzyl)propan-2-amine]
≤ 100 | CNCc1ccc(F)c(-c2cc3c(-c4cnn(C)c4)n[nH]c3cn2)c1C [Example 92, 1-(4-Fluoro-2-methyl-3-(3-(1-methyl-1H-pyrazol-4-yl)-1H-pyrazolo[3,4-c]pyridin-5-yl)phenyl)-N-methylmethanamine]
≤ 100 | Cc1c(CNC(C)C)ccc(F)c1-c1cc2c(-c3cnn(C)c3)n[nH]c2cn1 [Example 93, N-(4-Fluoro-2-methyl-3-(3-(1-methyl-1H-pyrazol-4-yl)-1H-pyrazolo[3,4-c]pyridin-5-yl)benzyl)propan-2-amine]
≤ 100 | Cc1c(CN2CCC2)ccc(F)c1-c1cc2c(-c3cnn(C)c3)n[nH]c2cn1 [Example 94, 5-(3-(Azetidin-1-ylmethyl)-6-fluoro-2-methylphenyl)-3-(1-methyl-1H-pyrazol-4-yl)-1H-pyrazolo[3,4-c]pyridine]
≤ 100 | CC(C)NC1CC(c2cc(F)c(-c3cc4c(-c5cnn(C)c5)n[nH]c4cn3)c(F)c2)C1 (stereo not shown) [Example 95, 3-(3,5-Difluoro-4-(3-(1-methyl-1H-pyrazol-4-yl)-1H-pyrazolo[3,4-c]pyridin-5-yl)phenyl)-N-isopropylcyclobutanamine]
≤ 100 | CNC(=O)c1ccc(-c2n[nH]c3cnc(-c4c(F)cccc4OC)cc23)cc1OC [Example 102, 4-(5-(2-Fluoro-6-methoxyphenyl)-1H-pyrazolo[3,4-c]pyridin-3-yl)-2-methoxy-N-methylbenzamide]
≤ 100 | CNC(=O)c1ccc(-c2n[nH]c3cnc(-c4c(F)cccc4OC)cc23)cc1C [Example 103, 4-(5-(2-Fluoro-6-methoxyphenyl)-1H-pyrazolo[3,4-c]pyridin-3-yl)-N,2-dimethylbenzamide]
≤ 100 | COc1cccc(F)c1-c1cc2c(-n3cnc(C(=O)NC(C)C)c3)n[nH]c2cn1 [Example 104, 1-(5-(2-Fluoro-6-methoxyphenyl)-1H-pyrazolo[3,4-c]pyridin-3-yl)-N-isopropyl-1H-imidazole-4-carboxamide]
≤ 100 | CNC(=O)c1cn(-c2n[nH]c3cnc(-c4c(F)cccc4OC)cc23)cn1 [Example 105, 1-(5-(2-Fluoro-6-methoxyphenyl)-1H-pyrazolo[3,4-c]pyridin-3-yl)-N-methyl-1H-imidazole-4-carboxamide]
≤ 100 | Cn1cc(-c2n[nH]c3cnc(-c4c(F)cc(OC5CCOCC5)cc4F)cc23)cn1 [Example 107, 5-(2,6-Difluoro-4-(tetrahydro-2H-pyran-4-yloxy)phenyl)-3-(1-methyl-1H-pyrazol-4-yl)-1H-pyrazolo[3,4-c]pyridine]
≤ 100 | CNCc1ccc(-c2cc3c(-c4cnn(C)c4)n[nH]c3cn2)c(C(F)(F)F)c1 [Example 112, N-Methyl-1-(4-(3-(1-methyl-1H-pyrazol-4-yl)-1H-pyrazolo[3,4-c]pyridin-5-yl)-3-(trifluoromethyl)phenyl)methanamine]
